Patent US20100144708A1, “HETEROCYCLIC COMPOUNDS CONTAINING NITROGEN ATOMS OR PHARMACEUTICALLY ACCEPTABLE SALTS THEREOF, PROCESS FOR THE PREPARATION THEREOF AND PHARMACEUTICAL COMPOSITION COMPRISING THE SAME FOR TREATMENT OF CANCER” (Korea Research Instititute of Bioscience and Biotechnology, priority 2006, published 2010)

Legend:
Type in all cases: cell-based, Human
PC-3 (prostate cancer) = experiment: Test for inhibition of tumor cell growth (SRB), PC-3; conditions: 48 hours, SRB staining; for GI50: Homo sapiens, read-out: GI50 PC-3 (prostate ancer)
Method: (§1) Human tumor cell lines, PC-3 (prostate cancer, ATCC, USA), MBA-MB-231 (breast cancer, ATCC, USA), ACHN (kidney cancer, ATCC, USA), and NUGC-3 (gastric cancer, ATCC, USA) were cultured in RPMI 1640 media containing 10% fetal bovine serum (FBS).
(§2) In order to measure anticancer activity, a suitable concentration of cells in RPMI 1640 media containing 5% fetal bovine serum (about 5×10^4 cells/□) was aliquotted in 96-well plates, and cultured in 5% CO2 at 37° C. On day one after aliquoting the cells, before the cells were treated with the compounds, in order to determine their concentration, 50[…] of 50% trichloroacetic acid was added to each well of time zero (T0) plate, and cells were fixed to determine zero point. The cells treated with the compounds were fixed on each well having 50[…] of 50% trichloroacetic acid after 48 hours. The final concentrations of the test compounds were 0.01, 0.03, 0.1, 0.3, and 1[…]/□. The fixed plate was washed with water and dried, and then 100[…] of 0.4% sulphorhodamine B (SRB) dissolved in 0.1% acetic acid was added to the each well to stain the cells. The plate was allowed to stand for 30 minutes, and then washed with 0.1% acetic acid. Then, the plate was dried at room temperature, and treated with 10 mM tris base (pH 10.5) to dissolve staining reagent. An absorbance measured at 540 nm was calculated as a percentage of the control group, and then the concentration of the compound that inhibited tumor cell growth (GI50(□/□)) by 50% was determined.

[1] = test system: MBA-MB-231 (breast cancer); experiment: Test for inhibition of tumor cell growth (SRB), MBA-MB-231; conditions: 48 hours, SRB staining; for GI50: Homo sapiens
Method: as §1, §2

ACHN (kidney cancer) = experiment: Test for inhibition of tumor cell growth (SRB), ACHN; conditions: 48 hours, SRB staining; for GI50: Homo sapiens, ACHN
Method: as §1, §2

NUGC-3 (gastric cancer) = experiment: Test for inhibition of tumor cell growth (SRB), NUGC-3; conditions: 48 hours, SRB staining; for GI50: Homo sapiens, NUGC-3
Method: as §1, §2

Row | Molecule | GI50 (PC-3 (prostate cancer)) [µg/mL] | GI50 [1] [µg/mL] | GI50 (ACHN (kidney cancer)) [µg/mL] | GI50 (NUGC-3 (gastric cancer)) [µg/mL] | GI50 PC-3 (prostate ancer) (PC-3 (prostate cancer)) [µg/mL] | GI50 MBA-MB-231 (breast cancer) [1] [µg/mL] | GI50 ACHN (kidney cancer) (ACHN (kidney cancer)) [µg/mL] | GI50 NUGC-3 (gastric cancer) (NUGC-3 (gastric cancer)) [µg/mL]
1 | 1-(4-fluorobenzyl)-1-methyl-4-(octane-1-sulfonyppiperazin-1-ium bromide [Example 63] | – | – | – | – | >10 | >10 | >10 | >10
2 | 1-allyl-1-methyl-4-(tetradecane-1-sulfonyppiperazin-1-ium bromide [Example 69] | – | – | – | – | 0.68 | 1.16 | 0.59 | 0.59
3 | 1-ethyl-1-(3-nitrobenzyl)-4-tetradecanoylpiperazin-1-him bromide [Example 56] | – | – | – | – | 0.52 | 1.13 | 1.93 | 1.22
4 | CCCCCCCC(=O)N1CC[N+](C)(CC)CC1.[I-] [Example 6, 1-ethyl-1-methyl-4-octanoyl-piperazin-1-ium iodide] | > 10 | > 10 | > 10 | > 10 | – | – | – | –
5 | CCCCCCCCCC(=O)N1CC[N+](CC)(Cc2ccccc2)CC1 [Example 10, 1-benzyl-4-decanoyl-1-ethyl-piperazin-1-ium bromide] | > 10 | > 10 | > 10 | > 10 | – | – | – | –
6 | C=CC[N+]1(CC)CCN(C(=O)CCCCCCCCC)CC1 [Example 11, 1-allyl-4-decanoyl-1-ethylpiperazin-1-ium bromide] | 3.07 | > 10 | > 10 | > 10 | – | – | – | –
7 | C=CC[N+]1(C)CCN(C(=O)CCCCCCCCCCCCC)CC1 [Example 13, 1-allyl-1-methyl-4-tetradecanoyl-piperazin-1-ium bromide] | 0.3 | 1.29 | > 10 | 0.5 | – | – | – | –
8 | CCCCCCCCCCCCCC(=O)N1CC[N+](C)(CC)CC1 [Example 14, 1-ethyl-1-methyl-4-tetradecanoyl-piperazin-1-ium iodide] | 0.57 | 2.44 | 2.37 | 0.54 | – | – | – | –
9 | C=CC[N+]1(C)CCN(C(=O)CCCCCCCCCCCCCCC)CC1.[Br-] [Example 17, 1-allyl-4-hexadecanoyl-1-methyl-piperazin-1-ium bromide] | 0.46 | 1.28 | 1.14 | 0.47 | – | – | – | –
10 | CCCCCCCCCCCCCCCC(=O)N1CC[N+](C)(Cc2ccc(OC)cc2)CC1.[Cl-] [Example 18, 4-hexadecanoyl-1-(4-methoxy-benzyl)-1-methyl-piperazin-1-ium chloride] | 0.49 | 0.92 | 1.31 | 1.16 | – | – | – | –
11 | C=CCCC[N+]1(C)CCN(C(=O)CCCCCCCCCCCCCCC)CC1.[Br-] [Example 19, 4-hexadecanoyl-1-methyl-1-pent-4-enyl-piperazin-1-ium bromide] | 0.55 | 1.7 | 1.69 | 0.63 | – | – | – | –
12 | C=CC[N+]1(CC)CCN(C(=O)CCCCCCCCCCCCCCC)CC1.[Br-] [Example 22, 1-allyl-1-ethyl-4-hexadecanoyl-piperazin-1-ium bromide] | 0.37 | 0.68 | 0.5 | 0.27 | – | – | – | –
13 | C=CCCC[N+]1(CC)CCN(C(=O)CCCCCCCCCCCCCCC)CC1.[Br-] [Example 24, 1-ethyl-4-hexadecanoyl-1-pent-4-enyl-piperazin-1-ium bromide] | 0.45 | 0.76 | 0.78 | 0.4 | – | – | – | –
14 | CCCCCCCCCCCCCCCCCC(=O)N1CC[N+](C)(Cc2ccccc2)CC1 [Example 25, 1-benzyl-1-methyl-4-octadecanoyl-piperazin-1-ium bromide] | 0.4 | 0.82 | 2.84 | 1.05 | – | – | – | –
15 | C=CC[N+]1(C)CCN(C(=O)CCCCCCCCCCCCCCCCC)CC1 [Example 26, 1-allyl-1-methyl-4-octadecanoyl-piperazin-1-ium bromide] | 0.54 | 1.13 | 1.79 | 0.88 | – | – | – | –
16 | CCCCCCCCCCCCCCCCCC(=O)N1CC[N+](C)(CC)CC1 [Example 27, 1-ethyl-1-methyl-4-octadecanoyl-piperazin-1-ium iodide] | 0.41 | 1.43 | 1.36 | 0.67 | – | – | – | –
17 | C=CC[N+]1(CC)CCN(C(=O)CCCCCCCCCCCCCCCCC)CC1 [Example 29, 1-allyl-1-ethyl-4-octadecanoyl-piperazin-1-ium bromide] | 0.84 | 2.51 | 2.43 | 1.37 | – | – | – | –
18 | CCCCCCCCCCCCCCCCCCCC(=O)N1CC[N+](C)(CC)CC1 [Example 30, 1-ethyl-4-icosanoyl-1-methylpiperazin-1-ium iodide] | 0.34 | 1.71 | 1.23 | 0.61 | – | – | – | –

More lines, main results first:

Row | GI50 (PC-3 (prostate cancer)) [µg/mL] | GI50 [1] [µg/mL] | GI50 (ACHN (kidney cancer)) [µg/mL] | GI50 (NUGC-3 (gastric cancer)) [µg/mL] | Molecule | GI50 PC-3 (prostate ancer) (PC-3 (prostate cancer)) [µg/mL] | GI50 MBA-MB-231 (breast cancer) [1] [µg/mL] | GI50 ACHN (kidney cancer) (ACHN (kidney cancer)) [µg/mL] | GI50 NUGC-3 (gastric cancer) (NUGC-3 (gastric cancer)) [µg/mL]
19 | 0.99 | 3.51 | 2.39 | 1.15 | CCCCCCCCCCCCCCCCCCCCCC(=O)N1CC[N+](C)(C)CC1 [Example 1, 4-docosanoyl-1,1-dimethylpiperazin-1-ium iodide] | – | – | – | –
20 | > 10 | > 10 | > 10 | > 10 | CCCCCCCC(=O)N1CC[N+](C)(C)CC1.[I-] [Example 2, 1,1-dimethyl-4-octanoyl-piperazin-1-ium iodide] | – | – | – | –
21 | > 10 | > 10 | > 10 | > 10 | CCCCCCCC(=O)N1CC[N+](C)(Cc2ccccc2)CC1.[Br-] [Example 3, 1-benzyl-1-methyl-4-octanoyl-piperazin-1-ium bromide] | – | – | – | –
22 | > 10 | > 10 | > 10 | > 10 | C=CC[N+]1(C)CCN(C(=O)CCCCCCC)CC1.[Br-] [Example 4, 1-allyl-1-methyl-4-octanoyl-piperazin-1-ium bromide] | – | – | – | –
23 | > 10 | > 10 | > 10 | > 10 | CCCCCCCC(=O)N1CC[N+](C)(Cc2ccc(OC)cc2)CC1.[Cl-] [Example 5, 1-(4-methoxy-benzyl)-1-methyl-4-octanoyl-piperazin-1-ium chloride] | – | – | – | –
24 | > 10 | > 10 | > 10 | > 10 | CCCCCCCC(=O)N1CC[N+](CC)(Cc2ccccc2)CC1.[Br-] [Example 7, 1-benzyl-1-ethyl-4-octanoyl-piperazin-1-ium bromide] | – | – | – | –
25 | 0.8 | > 10 | > 10 | > 10 | CCCCCCCCCC(=O)N1CC[N+](C)(Cc2ccccc2)CC1 [Example 8, 1-benzyl-4-decanoyl-1-methyl-piperazin-1-ium bromide] | – | – | – | –
26 | 1.81 | > 10 | > 10 | > 10 | C=CC[N+]1(C)CCN(C(=O)CCCCCCCCC)CC1 [Example 9, 1-allyl-4-decanoyl-1-methyl-piperazin-1-ium bromide] | – | – | – | –
27 | > 10 | > 10 | > 10 | > 10 | CCCCCCCCCC(=O)N1CC[N+](C)(CC)CC1 [Example 12, 4-decanoyl-1-ethyl-1-methylpiperazin-1-ium iodide] | – | – | – | –
28 | 1.42 | > 10 | > 10 | 2.07 | CCCCCCCCCCCCCC(=O)N1CC[N+](CC)(Cc2ccccc2)CC1 [Example 15, 1-benzyl-1-ethyl-4-tetradecanoyl-piperazin-1-ium bromide] | – | – | – | –
29 | 0.41 | 2.49 | 4.26 | 0.76 | C=CC[N+]1(CC)CCN(C(=O)CCCCCCCCCCCCC)CC1 [Example 16, 1-allyl-1-ethyl-4-tetradecanoyl-piperazin-1-ium bromide] | – | – | – | –
30 | 0.67 | 1.52 | 1.58 | 0.72 | C=CCC[N+]1(C)CCN(C(=O)CCCCCCCCCCCCCCC)CC1.[Br-] [Example 20, 1-but-3-enyl-4-hexadecanoyl-1-methyl-piperazin-1-ium bromide] | – | – | – | –
31 | 0.55 | 1.16 | 0.92 | 0.46 | CCCCCCCCCCCCCCCC(=O)N1CC[N+](CC)(Cc2ccccc2)CC1.[Br-] [Example 21, 1-benzyl-1-ethyl-4-hexadecanoyl-piperazin-1-ium bromide] | – | – | – | –
32 | 0.8 | 2.05 | 1.89 | 0.58 | CCCCCCCCCCCCCCCC(=O)N1CC[N+](C)(CC)CC1.[I-] [Example 23, 1-ethyl-4-hexadecanoyl-1-methyl-piperazin-1-ium iodide] | – | – | – | –
33 | 3.64 | > 10 | > 10 | 5.21 | CCCCCCCCCCCCCCCCCC(=O)N1CC[N+](CC)(Cc2ccccc2)CC1 [Example 28, 1-benzyl-1-ethyl-4-octadecanoyl-piperazin-1-ium bromide] | – | – | – | –
